In US12220420B2, “Combination therapy for cancer treatment” (Galera Labs, LLC, priority 2016, dated 2025):

Legend:
[1] = Tuder et al. 2003; cited from earlier work
H1299 cancer cells = assay: Clonogenic assay of FIG. 4, normalized surviving fraction; type: cell-based, human; settings: 20 μM GC4419, FIG. 4, control also about 1
Description: The effect of the pentaaza macrocyclic ring complex GC4419 in combination with inhibitors of hydrogen peroxide metabolism was tested on breast cancer cells (MB231) and non-small cell lung cancer cells (H1299) versus normal cells (HMEC normal mammary epithelial cells and HBEpC normal bronchial epithelial cells). The cells were plated and grown exponentially for 2 days. Either or both of 20 μM of the CG4419 compound and 100 μM BSO were added at time 0 of exposure, and 500 nM Auranofin (a thioredoxin reductase inhibitor) was added 48 hours after, for 15 minutes prior to a clonogenic assay.

[2] = test system: human lung cancer cells (H292); assay: PeroxyOrange-1 (PO-1) oxidation as a measure of steady-state H2O2; type: cell-based
Description: The effects on H2O2 fluxes of a pentaaza macrocyclic ring complex (GC4419) provided in combination with inhibitors of H2O2 metabolism were tested in human lung cancer cells (H292). The H292 cells were treated with 20 μM GC4419 for 3 and 24 hours, and PeroxyOrange-1 (PO-1) oxidation was monitored as a measure of steady-state H2O2. […] Also, the combination of GC4419+BSO+AT for 3 hours (B-AT 4419 3) and 24 hours (B-AT 4419 24) further increased PO-1 oxidation to 3-fold greater than a control. The PO-1 oxidation was also monitored in dosing the cells three times with 100 μM hydrogen peroxide (H2O2).

HN5 (HNSCC) tumors = assay: Animal model of squamous cell carcinoma of the head and neck with or without radiation; type: in vivo
Description: The effect of GC4419 was tested in vivo on animal models of squamous cell carcinoma of the head and neck (HNSCC). GC4419 was delivered as a 24 mg/kg daily dose delivered as an ip bolus on 5 consecutive days starting 1 hour prior to irradiation. Radiation was delivered as a single dose of 12 Gy using a 10 mm collimated beam aimed at the center of the tumor.

[3] = test system: Subcutaneous H1299 tumors; assay: Non-small cell lung cancer tumor xenograft model with or without radiation; type: in vivo
Description: The effect of the pentaaza macrocyclic ring complex GC4419 was tested in vivo on non-small cell lung cancer (NSCLC) in a tumor xenograft model. Subcutaneous H1299 tumors were subjected to biologically equivalent fractionation schemes of 18 Gy×1 dose or 2 Gy×16 doses (delivered on consecutive days), 1 hour following an initial injection of 24 mg/kg GC4419. GC4419 was also administered on the next 4 consecutive days after the first injection (given, in the case of the 2 Gy fraction dose experiment, 1 hour prior to each of those 4 days' radiation treatments).

[4] = test system: lung cancer cells (H1299); assay: 3-aminotriazole mediated inactivation of catalase (H2O2 flux); type: cell-based, human; settings: 20 μM GC4419, H1299
Description: (§1) The effect of the pentaaza macrocyclic ring complex GC4419 in increasing levels of H2O2 in cancer cells was further tested by measuring the 3-aminotriazole mediated inactivation of catalase, using a method as described in Ahmad et al, J. Biol Chem, 280(6), 4254-4263 (2005). Briefly, head and neck cancer cells (Cal27), lung cancer cells (H1299) and breast cancer cells (MB231) were grown in 60 mm dishes, transduced with 50 MOI adCat to genetically increase catalase expression, and allowed 48 hours to recover so that the activity of catalase could increase to maximal levels. Afterwards, 50 mM AT was added for 5 minutes, which irreversibly binds to and inhibits the catalase intermediate formed in the presence of H2O2. 20 μM GC4419 was added, and cells were collected at 10 minute intervals for 60 minutes, and the inhibition of catalase was determined. A Lowry's protein assay determined the total protein concentration of individual samples. This method provides a stoichiometry of one catalase molecule being inhibited for each molecule of H2O2, thereby providing for precise measurements of changes in H2O2 flux. The results are shown in FIG. 3 (left hand side is Cal27, middle is H1299, and right hand side is MB231).

[5] = test system: breast cancer cells (MB231); assay: as above; type: cell-based, human; settings: 20 μM GC4419, MB231
Description: as §1

[6] = Anderson 2015; cited from earlier work
[7] = test system: Breast cancer cells (MB231) and lung cancer cells (H1299); assay: Clonogenic killing in presence and absence of N-acetylcysteine (NAC); type: cell-based, human; settings: 10 mM of NAC; 20 μM GC4419, 100 μM BSO, 500 nM Au
Description: Breast cancer cells (MB231) and lung cancer cells (H1299) were grown in culture to 75% confluence and treated with either 20 μM GC4419, or 100 μM BSO with 500 nM Au added after 48 hours, or all of GC4419, BSO and Au. The cancer cells were also treated with the same sets of compounds, but with the further addition of 10 mM of NAC. […] Thus, the results support that pentaaza macrocyclic ring complexes such as GC4419 combined with inhibitors of hydrogen peroxide metabolism can selectively kill cancer cells versus normal cells via oxidative stress correlated with increase H2O2 fluxes.

[8] = test system: Non-small cell lung cancer cells (H1299); assay: Clonogenic cell survival assay, auranofin alone and with ionizing radiation; type: cell-based, human
Description: The effects of an inhibitor of hydrogen peroxide metabolism, auranofin (a thioredoxin reductase inhibitor), on cancer cells was tested in a clonogenic cell survival assay to determine the effects of the compound alone and in combination with ionizing radiation. Non-small cell lung cancer cells (H1299) were exponentially grown and treated with auranofin (Au) either by itself for 15 minutes, or 15 minutes prior to the first of two ionizing radiation (IR) doses (2 Gy each) spaced 24 hours apart. After the last ionizing radiation dose, the cells were trypsinized, counted, replated at varying lower densities and incubated for 12 days. Plates were stained and counted for clonogenic survival assays. […] Furthermore, treatment with auranofin sensitized the cancer cells to radiation, thereby increasing the efficiency of the ionizing radiation in cell killing (Auranofin+IR) as compared to administration of ionizing radiation alone (IR 4 Gy).

lung cancer cells (H292) = assay: Total glutathione levels, DTNB recycling spectrophotometric assay; type: cell-based, human; settings: 50 μM or 100 μM BSO, 24 hours
Description: (§2) The effect of buthionine sulfoximine (BSO) on reduced glutathione (GSH) levels in breast cancer cells (MB231) and lung cancer cells (H292) was examined. The cells were plated and grown to 75% confluency, then treated with either 50 μM BSO or 100 μM BSO for another 24 hours before harvesting for analysis for total glutathione levels using a DTNB recycling spectrophotometric assay.

[9] = test system: breast cancer cells (MB231); assay: as above; type: cell-based, human; settings: 50 μM or 100 μM BSO, 24 hours
Description: as §2

[10] = 24 mg/kg daily ip bolus, 5 consecutive days
[11] = 24 mg/kg GC4419, 5 consecutive days

In the case of `[Cl][Mn][Cl].c1cc2nc(c1)CN[C@H]1CCCC[C@@H]1NCCN[C@H]1CCCC[C@@H]1NC2` [GC4419], the “VEGFr inhibitor-induced pulmonary disease” value [1] is given as “attenuate VEGFr inhibitor-induced pulmonary disease”, the “normalized surviving cell fraction (on a log scale)” value (H1299 cancer cells) is given as “about 1” and the “increase in PO-1 oxidation as compared to the control” value ([2]; 20 μM GC4419, 3 hours) is given as 1.5 fold. The “increase in PO-1 oxidation as compared to the control” value ([2]; 20 μM GC4419, 24 hours) was 1.5 fold, the tumor growth (HN5 (HNSCC) tumors; [10]) was “significant growth delay” and the “tumor volumes as compared to a control” value (HN5 (HNSCC) tumors; [10]) was “reduced tumor volumes”. The “tumor growth, combination with radiation” value (HN5 (HNSCC) tumors; 24 mg/kg daily ×5 starting 1 hour prior to single dose of 12 Gy) was “even greater growth delays”, the “response of NSCLC tumors to radiation” value ([3]; 24 mg/kg GC4419 1 hour before 18 Gy×1 or 2 Gy×16) was “significantly enhancing radiation induced growth delay, and survival” and the “anti-cancer effect, cancer size as compared to the control” value [3, 11] was “reduced cancer size”. For the same molecule, the “survival as compared to the control” value [3, 11] was “improved survival”, the “steady-state levels of intracellular H2O2 flux, normalized to the control” value [4] was “significant increases” and the “steady-state levels of intracellular H2O2 flux, normalized to the control” value [5] was “significant increases”. For the same molecule, the oral mucositis [6] was “reduce oral mucositis”.
With `CC(=O)N[C@@H](CS)C(=O)O` [NAC, N-acetylcysteine] the “effect of NAC on cell killing caused by GC4419+Au and/or BSO” value [7] was “nearly completely inhibited the cell killing”.
With `CC(=O)OCC1OC([S-])C(OC(C)=O)C(OC(C)=O)C1OC(C)=O.CCP(CC)CC.[Au+]` (stereo not shown) [auranofin, gold(+1)cation; 3,4,5-triacetyloxy-6-(acetyloxymethyl)oxane-2-thiolate; triethylphosphanium] the “normalized surviving cell fraction” value ([8]; 250 nM of auranofin, FIG. 6) was “over 0.5”, the “cell killing as compared to a control” value ([8]; 250 nM, 15 minutes) was “significant cell killing” and the “response of cancer cells to ionizing radiation” value ([8]; 15 minutes prior to first of two IR doses (2 Gy each), versus IR 4 Gy alone) was “significantly increases”.
In the case of `CCCCS(=N)(=O)CCC(N)C(=O)O` (stereo not shown) [BSO, buthionine sulfoximine], the glutathione levels (lung cancer cells (H292)) is reported as “significantly decreases” and the glutathione levels [9] is reported as “significantly decreases”.
